Data from patent US20150374646A1, “TREATMENT OF CANCER AND OTHER CONDITIONS USING A TRANSCRIPTION FACTOR MODULATOR” (C & C BIOPHARMA, LLC, priority 2013, published 2015).

Experiments:
HL60 [1] = experiment: Leukemia cell growth inhibition, CellTiter-Glo (Example 1); type: cell-based, human
Procedure: (§2) Various human leukemia cells were grown to the logarithmic growth phase and seeded into 24-well plates. […] Treated cells were further incubated for 72 hours and then were examined for cell proliferation. Cell proliferation was determined using the CellTiter-Glo Luminescence Cell Viability assay (Promega Corporation, Madison, Wis.) according to the manufacturer's protocol. The calculated inhibition rate was determined with the following formula: Inhibition rate (%)=(1−Luminescence of experimental group/Luminescence of control group)×100. IC50 is the calculated concentration of a compound needed to inhibit half of the maximum cell growth (equivalent to cell growth in control group) based on the corresponding dose-response curve under the described experimental conditions.

U266 = experiment: as above; type: cell-based; conditions: Homo sapiens, U-266; U266, Multiple myeloma; 72 hours
Procedure: as §2

Jurkat = experiment: as above; type: cell-based; conditions: Homo sapiens, ALL (T-cell), 72 hours
Procedure: as §2

Nalm-6 [2] = experiment: as above; type: cell-based, human
Procedure: as §2

RCH-ACV = experiment: as above; type: cell-based; conditions: Homo sapiens, ALL (B-cell), 72 hours
Procedure: as §2

BaF3 BCR-ABL = experiment: as above; type: cell-based; conditions: Mouse cell line with BCR-ABL, 72 hours
Procedure: as §2

A549 = experiment: Cancer cell line growth inhibition, CellTiter-Glo (Example 3); type: cell-based; conditions: Homo sapiens, NSCLC, 72 hours, read-out: IC50
Procedure: (§1) YT30 was tested for growth inhibition against 67 human cancer cell lines derived from diverse tissues including the National Cancer Institute human cancer cell lines (NCI-60). […] Cells in different wells were treated with various concentrations of YT30, YT86, YT88, or YT128. […] Cell viabilities were determined by the CellTiter-Glo Luminescence Cell Viability assay kit (Promega Corporation, Madison, Wis.) according to manufacturer's protocol.

ACHN = experiment: as above; type: cell-based; conditions: Homo sapiens, Renal, 72 hours
Procedure: as §1

CAK1 = experiment: as above; type: cell-based; conditions: Homo sapiens, Renal, 72 hours
Procedure: as §1

CCRF-CEM = experiment: as above; type: cell-based; conditions: Homo sapiens, Leukemia, 72 hours, read-out: IC50
Procedure: as §1

EKVX = experiment: as above; type: cell-based; conditions: Homo sapiens, NSCLC, 72 hours
Procedure: as §1

HCT116 = experiment: as above; type: cell-based; conditions: Homo sapiens, HCT-116, Colon, 72 hours
Procedure: as §1

HL60 [3] = experiment: as above; type: cell-based; conditions: Homo sapiens, HL-60, Leukemia, 72 hours, read-out: IC50
Procedure: as §1

HeLa = experiment: as above; type: cell-based; conditions: Homo sapiens, Cervical, 72 hours, read-out: IC50
Procedure: as §1

HepG2 = experiment: as above; type: cell-based; conditions: Homo sapiens, Liver, 72 hours
Procedure: as §1

K562 = experiment: as above; type: cell-based; conditions: Homo sapiens, Leukemia, 72 hours, read-out: IC50
Procedure: as §1

MALME-3M = experiment: as above; type: cell-based; conditions: Homo sapiens, Melanoma, 72 hours
Procedure: as §1

MCF7 = experiment: as above; type: cell-based; conditions: Homo sapiens, Breast, 72 hours, read-out: IC50
Procedure: as §1

NCI-H226 = experiment: as above; type: cell-based; conditions: Homo sapiens, NSCLC, 72 hours
Procedure: as §1

NCI-H522 = experiment: as above; type: cell-based; conditions: Homo sapiens, NSCLC, 72 hours
Procedure: as §1

OVCAR-8 = experiment: as above; type: cell-based; conditions: Homo sapiens, Ovary, 72 hours
Procedure: as §1

PC-3 = experiment: as above; type: cell-based; conditions: Homo sapiens, Prostate, 72 hours
Procedure: as §1

RCH-HCV = experiment: as above; type: cell-based; conditions: Homo sapiens, Leukemia, 72 hours
Procedure: as §1

SEM cells = experiment: as above; type: cell-based; conditions: Homo sapiens, Leukemia, 72 hours
Procedure: as §1

SK-MEL-28 = experiment: as above; type: cell-based; conditions: Homo sapiens, Melanoma, 72 hours
Procedure: as §1

SK-MEL-2 = experiment: as above; type: cell-based; conditions: Homo sapiens, Melanoma, 72 hours
Procedure: as §1

SK-MEL-5 = experiment: as above; type: cell-based; conditions: Homo sapiens, Melanoma, 72 hours
Procedure: as §1

SN12C = experiment: as above; type: cell-based; conditions: Homo sapiens, Renal, 72 hours, read-out: IC50
Procedure: as §1

SR = experiment: as above; type: cell-based; conditions: Homo sapiens, Leukemia, 72 hours, read-out: IC50
Procedure: as §1

TK-10 = experiment: as above; type: cell-based; conditions: Homo sapiens, Renal, 72 hours, read-out: IC50
Procedure: as §1

U251 = experiment: as above; type: cell-based; conditions: Homo sapiens, U-251, CNS, 72 hours, read-out: IC50
Procedure: as §1

UACC-257 = experiment: as above; type: cell-based; conditions: Homo sapiens, Melanoma, 72 hours
Procedure: as §1

siHa = experiment: as above; type: cell-based; conditions: Homo sapiens, Cervical, 72 hours, read-out: IC50
Procedure: as §1

Nalm-6 [4] = experiment: cells; conditions: Homo sapiens, NALM-6, 72 h, read-out: 72 hr growth inhibition (%)
Procedure: as §2
Growth inhibition experiments were performed as previously described.

## Nc1ccccc1NC(=O)CCCCCC(=O)Nc1cccc(Br)c1 [YT30]
HL60 [1]; HL60 cells, 4 μM
  Growth inhibition (FIG. 1): significantly inhibit cell growth
HL60 [1]; Homo sapiens, HL-60, HL60, AML (subtype APL), 72 hours
  IC50: 1.04 µM
U266
  IC50: 8.29 µM
Jurkat
  IC50: 0.91 µM
Nalm-6 [2]; Homo sapiens, NALM-6, ALL (B-cell), 72 hours
  IC50: 2.36 µM
Nalm-6 [2]; Nalm-6 cells, 4 μM
  Growth inhibition (FIG. 1): significantly inhibit cell growth
RCH-ACV
  IC50: 0.79 µM
BaF3 BCR-ABL
  IC50: 3.4 µM
A549
  IC50: 3.41 µM
ACHN
  IC50: 12.5 µM
CAK1
  IC50: 11.7 µM
CCRF-CEM
  IC50: 1.53 µM
EKVX
  IC50: 4.57 µM
HCT116
  IC50: 13 µM
HL60 [3]
  IC50: 1.04 µM
HeLa
  IC50: 4.3 µM
HepG2
  IC50: 12.7 µM
K562
  IC50: 1.82 µM
MALME-3M
  IC50: 5.84 µM
MCF7
  IC50: 6.84 µM
NCI-H226
  IC50: 12.7 µM
NCI-H522
  IC50: 8.15 µM
OVCAR-8
  IC50: 6.74 µM
PC-3
  IC50: 9.79 µM
RCH-HCV
  IC50: 0.79 µM
SEM cells
  IC50: 1.15 µM
SK-MEL-28
  IC50: 5.99 µM
SK-MEL-2
  IC50: 4.6 µM
SK-MEL-5
  IC50: 3.87 µM
SN12C
  IC50: 9.52 µM
SR
  IC50: 6.89 µM
TK-10
  IC50: 16.1 µM
U251
  IC50: 7.36 µM
UACC-257
  IC50: 6.1 µM
siHa
  IC50: 13.1 µM
Nalm-6 [4]
  inhibition at 0.5 µM: 2.5%
  inhibition at 1 µM: 8.4%
